US5911990A, “T-cell receptor peptides and methods for preventing the progression to AIDS in an animal model” (Arizona Board of Regents on Behalf of the University of …, priority 1996, dated 1999)
Ends that are not written are not given here.

Assay: Body weight (Example 2)
Type: in vivo, mice
Conditions: various levels of peptide injection or time course of injection postinfection
Source text: Female C57BL/6 mice, 4-weeks old, were obtained from Charles River Laboratories Inc. (Wilmington, Del.). Animals were cared for as required by the University of Arizona Committee on Animal Research. After 2 weeks housing in the animal facility in the Arizona Health Science Center (Tucson, Ariz.), they were randomly assigned to one of the following treatments with 8 mice per group for study A: (1) uninfected, normal mice; (2) uninfected, normal mice injected with saline (pyrogen free); (3) LP-BM5-infected mice injected with 5 μg TCR Vβ CDRI peptide; (4) LP-BM5infected mice injected with 25 μg TCR Vβ CDR1 peptide; (5) LP-BM5 infected mice injected with 100 μg TCR Vβ CDR1 peptide; (6) LP-BM5-infected mice injected with 200 μg TCR Vβ CDR1 peptide; (7) LP-BM5-infected mice injected with 500 μg TCR Vβ CDR1 peptide; (8) LP-BM5-infected mice injected with saline and 200 μg Poly AU adjuvant; (9) LP-BM5-infected mice injected with 25 μg TCR Vβ CDR1 peptide and 230 μg Poly AU adjuvant; (10) LP-BM5-infected mice injected with saline and 230 μg Ribi MPL TDM CWS adjuvant; (11) LP-BM5-infected mice injected with 5 μg TCR Vβ CDR1 peptide and 230 μg Ribi MPL TDM CWS adjuvant; and (12) LP-BM5-infected mice injected with 25 μg TCR Vβ CDR1 peptide and 230 Ribi MPL TDM CWS adjuvant.
Administration of peptides (dissolved in saline) and adjuvants were performed 2 weeks after LP-BM5 infection. […]

Question: With “CKPISGHNSLFWYRQT [TCR Vβ CDR1 peptide, Cys Lys Pro Ile Ser Gly His Asn Ser Leu Phe Trp Tyr Arg Gln Thr]” as the sequence, how does the “body weight of the mice” value read?
Answer: not affected
